Measurements reported in PubChem BioAssay AID1508591.

Conditions: rat; liver microsomes; pH 7.4; 15.0 min; 1.0 µM

Row | Compound | half-life [min]
1 | Fc1ccccc1-c1ccc(Nc2nc(-c3ccncc3)nc3ccccc23)cc1F | > 30
2 | O=c1cc(-c2nc(Nc3ccc(F)c(F)c3)c3ccccc3n2)cc[nH]1 | > 30
3 | CC(C)=CCNc1ncnc2nc[nH]c12 | > 30
4 | O=C(NCCCNc1nc(Nc2cccc(CN3CCOCC3)c2)ncc1C1CC1)C1CCC1 | 6.85
5 | CCCOC(=O)c1ccc(Oc2c(-c3ccc(O)cc3O)n[nH]c2C)cc1 | 3.04
6 | COc1ccc(-c2nc(-c3c(C)noc3C)cc3c2cc(C)n3CCN(C)C)cc1OC | > 30
7 | Cn1nnnc1Sc1ncnc2sc(-c3ccccc3)cc12 | 12.3
8 | Cn1ccc2cc(-c3csc(N4CCC(C(N)=O)CC4)n3)ccc21 | 2.09
9 | Cc1ccc([S+](=O)([O-])n2cc(Cc3ccc(-c4ccccc4)cc3)c3ccccc32)cc1 | 22
10 | c1ccc(Nc2cc3c(cn2)CN(Cc2c[nH]c4ccccc24)CCN3)cc1 | 7.47
11 | O=C1CCc2cc(S(=O)(=O)Nc3ccc(F)c(Cl)c3)ccc2N1 | 20.5
12 | Cc1ccc(S(=O)(=O)Nc2cnccc2C(=O)Nc2nc(-c3cc(Br)cs3)cs2)cc1 | > 30
13 | Cc1cccc(-n2cnc3cc(C(=O)N4CCCCC4)ccc32)c1 | 5.85
14 | Nc1ncc(S(=O)(=O)N2CCN(c3ccccc3)CC2)cn1 | 1.3
15 | NC(=O)N1CCCC(C(=O)N2CCCN(c3ccc(F)cc3)CC2)C1 (stereo not given) | > 30
16 | COc1ccc(OC)c(-c2nc3c(C#N)c[nH]n3c2NC2CCCCC2)c1 | 4.2
17 | COc1ccc(NC(=O)CCCc2nnc3n(CCC(C)C)c(=O)c4sccc4n23)cc1Cl | 2.96
18 | Cc1cnccc1-c1nc(Nc2ccc(F)c(F)c2)c2ccccc2n1 | 10
19 | O=C1Nc2ccccc2C12CC2c1cc(Cl)c(O)c(Cl)c1 (stereo not given) | 9.8
20 | CCCCOc1ccc(C(=O)N2CCC(c3n[nH]c(=O)n3-c3ccc(C)cc3)CC2)cc1 | 5.43
21 | Cc1ccc(S(=O)(=O)Nc2cc(Cl)ccc2C(=O)Nc2nc(-c3ccccc3)cs2)cc1 | 7.65
22 | CNc1cc(-c2nc(Nc3ccc(F)c(F)c3)c3ccccc3n2)ccn1 | 8.2
23 | O=C(Cc1ccc(Cl)c(Cl)c1)Nc1ccc(S(=O)(=O)Nc2ccccc2)cc1 | 4.2
24 | Fc1ccc(CNc2nc(-c3ccncc3)nc3ccccc23)cc1F | 11
25 | O=C(C=Cc1cccnc1)NCCCCC1CCN(C(=O)c2ccccc2)CC1 | 12.2

Row | Compound | half-life [min]
26 | COc1cc(OC)c2c(=O)[nH]c(-c3cc(C)c(OCCO)c(C)c3)nc2c1 | > 30
27 | CN1CCCN(C(c2ccccc2)c2ccc(Cl)cc2)CC1 (stereo not given) | 2.89
28 | O=C(Nc1nc(-c2ccccc2)cs1)c1ccccc1[N+](=O)[O-] | 17
29 | Fc1cnc(-c2ccccc2C(F)F)nc1NCc1ccc(-c2ccn[nH]2)cc1 | 10
30 | Cc1cc(C)nc(NC(=S)N2CCN(c3ccc(Cl)cc3F)CC2)c1 | > 30
31 | NC(=O)C1CCN(c2nc(-c3cccc(Br)c3)cs2)CC1 | 1.77
32 | CC1CCC(NC(=O)c2ccc3c(c2)N(Cc2ccccc2F)C(=O)c2ccccc2S3)CC1 (stereo not given) | 2.12
33 | COCCNC(=O)[C@H]1C[C@H](Oc2ccccc2)CN1Cc1ccc2[nH]ccc2c1 | 0.97
34 | CCOc1ccccc1N(CC(=O)N1CCOCC1)S(=O)(=O)c1ccc(SC)cc1 | 1.45
35 | Fc1cccc(Nc2nc(-c3ccncc3)nc3ccccc23)c1F | 11
36 | Cc1ccc(S(=O)(=O)Nc2cnccc2C(=O)Nc2nc(-c3cccnc3)cs2)cc1 | 7.7
37 | COc1ccc(C(=O)N2CCC3(CC2)CN(c2cccc(-c4ccccc4)c2)C3)cc1 | 22
38 | c1ccc(Nc2cc3c(cn2)CN(Cc2ccsc2)CCN3)cc1 | 1.74
39 | COc1ccc(Nc2ncc(C(=O)Nc3cccc(Cl)c3)c3ccccc23)cc1 | 16.5
40 | O=[S+]([O-])(Nc1cnc2ccccc2c1)c1ccc(NCc2ccc(Cl)cc2O)cc1 | 18
41 | CN(Cc1cccs1)c1nc(-c2ccccc2C(F)(F)F)nc2ccccc12 | 1.98
42 | CCOc1ccc(CCNC(=O)c2cc3sccc3n2Cc2ccc(-n3cncn3)cc2)cc1OCC | 4.3
43 | CCOC(=O)N1CCN(Cc2nc3cc(NC(=O)c4ccc(OC)cc4)ccc3n2C(C)C)CC1 | 26
44 | O=C(NCCO)c1cccc(-c2cc(Nc3ccc(OC(F)(F)F)cc3)ncn2)c1 | > 30
45 | CS(=O)(=O)CCNCc1ccc(-c2ccc3ncnc(Nc4ccc(OCc5cccc(F)c5)c(Cl)c4)c3c2)o1 | 7.65
46 | CCCCCCCc1c(C)nc(N2CCOCC2)[nH]c1=O | 3.5
47 | CC[C@@]1(O)C(=O)OCc2c1cc1n(c2=O)Cc2c-1nc1ccccc1c2CCNC(C)C | > 30
48 | Cc1cccc2nc(-c3ccccn3)c(Nc3ccc(F)cc3)n12 | 6.75
49 | COc1cccc(NCCC2(c3ccccc3)CC(C)(C)OC(C)(C)C2)c1 | 1.6
50 | O=c1[nH]nc(Sc2ncc([N+](=O)[O-])s2)n1-c1ccc2c(c1)OCCO2 | 1.02

Row | Compound | half-life [min]
51 | Cc1ccccc1CSc1nc2ncc(Br)cc2[nH]1 | 7
52 | COc1ccc(C2(C(=O)N3CCC(n4cc(-c5nc(C)no5)nn4)CC3)CC2)cc1 | 7.38
53 | NC(=O)c1ccc(-c2nc3c([nH]2)CN(C(=O)CN2CCOCC2)CC3)cc1 | > 30
54 | Cc1cc(F)ccc1-c1nc(NCCN=C(N)NC#N)nc2c1ccc(=O)n2-c1c(F)cccc1F | 5.23
55 | CCCC1=Nc2cc(C(=O)NC3CCCCC3)ccc2Sc2ccc(C)cc21 | 1.48
56 | Cc1ccc(-n2c(=O)c3oc4ccccc4c3n(CC(=O)Nc3ccc(F)c(Cl)c3)c2=O)cc1C | 29.6
57 | O=C(c1nc(-c2cccnc2)c2ccccn12)N1CCOCC1 | > 30
58 | Cc1cccc(N2CCN(C(=O)Cn3ncc4c3-c3ccccc3OC4)CC2)c1C | 2.76
59 | Cc1ccc(Cl)cc1NS(=O)(=O)c1cc2c(cc1F)NC(=O)CC2 | 4.97
60 | N#Cc1nc(-c2cccc3ccccc23)oc1NC1CNC1 | > 30
61 | CCn1cc(CNC(=O)c2cc(-c3ccc(C)cc3)nc3ccc(Br)cc23)c(C)n1 | 10.9
62 | N#Cc1ccc(C(=O)Nc2ccc(Cl)c(-c3nc4cc(Cl)ccc4o3)c2)c(F)c1 | > 30
63 | CCOC(=O)c1ccc(NC(=O)N2Cc3[nH]cnc3C[C@H]2c2nc(C(C)C)no2)cc1 | 6.65
64 | Nc1cc(CN2C(=O)c3ccccc3C2=O)cc(Cl)c1O | 11.7
65 | Cc1ccc(S(=O)(=O)Nc2cnccc2C(=O)Nc2nc(-c3ccc4c(c3)CCCC4)cs2)cc1 | 2.3
66 | Brc1ccccc1-c1nc(NCc2ccc(-c3cccnc3)cc2)c2ccccc2n1 | 6.55
67 | Cc1cnc(-c2ccccc2C(C)C)nc1NCC1CCN(c2cccnc2)C1 (stereo not given) | 2.87
68 | COc1cc(-c2csc(N3CCC(C(N)=O)CC3)n2)cc(OC)c1OC | > 30
69 | COCCCOc1ccnc(CS(=O)c2nc3ccccc3[nH]2)c1C (stereo not given) | 8.83
70 | Oc1ccc(CNc2ccccc2C(F)(F)F)c2cccnc12 | 4.99
71 | Cc1ccc(-c2cc(C(=O)Nc3ccc(-c4nn[nH]n4)cc3)c3ccccc3n2)cc1C | > 30
72 | COCC(C)NCc1cc2ccc(OC)cc2nc1N1CCN(c2ccc(F)cc2)CC1 (stereo not given) | 10.4
73 | Cc1ccc2oc3c(c(=O)c2c1)C(c1cccc(O)c1)N(CCCN1CCOCC1)C3=O (stereo not given) | 9.55
74 | COc1ccc2c(c1)CN(C(=O)CCN1CCC(Cc3ccccc3)CC1)CCS2 | 2.27
75 | O=C1/C(=C\c2ccccc2)C[C@@]2(O)C3Cc4ccc(O)c5c4[C@@]2(CCN3CC2CC2)[C@H]1O5 | 3.37
